# Assay results as given in article PMC9448371, “Synthesis and biological activity evaluation of 3-(hetero) arylideneindolin-2-ones as potential c-Src inhibitors” (Journal of Enzyme Inhibition and Medicinal Chemistry, 2022).
# Entries after “also recorded” stand apart in the source; their conditions may differ. Where two headings read alike, the source gives them in different places.
# Experiments:
# c-Src = molecular target: T1, c-Src (Homo sapiens, UniProt P12931); assay: c-Src kinase inhibition assay (ADP-Glo Kinase Assay); assay type: biochemical; conditions: for IC50: read-out: ID50 (the source's name)
# T1 construct: His6 (N); purchased Merck-Millipore 14–326
# T1 sequence (P12931 whole entry): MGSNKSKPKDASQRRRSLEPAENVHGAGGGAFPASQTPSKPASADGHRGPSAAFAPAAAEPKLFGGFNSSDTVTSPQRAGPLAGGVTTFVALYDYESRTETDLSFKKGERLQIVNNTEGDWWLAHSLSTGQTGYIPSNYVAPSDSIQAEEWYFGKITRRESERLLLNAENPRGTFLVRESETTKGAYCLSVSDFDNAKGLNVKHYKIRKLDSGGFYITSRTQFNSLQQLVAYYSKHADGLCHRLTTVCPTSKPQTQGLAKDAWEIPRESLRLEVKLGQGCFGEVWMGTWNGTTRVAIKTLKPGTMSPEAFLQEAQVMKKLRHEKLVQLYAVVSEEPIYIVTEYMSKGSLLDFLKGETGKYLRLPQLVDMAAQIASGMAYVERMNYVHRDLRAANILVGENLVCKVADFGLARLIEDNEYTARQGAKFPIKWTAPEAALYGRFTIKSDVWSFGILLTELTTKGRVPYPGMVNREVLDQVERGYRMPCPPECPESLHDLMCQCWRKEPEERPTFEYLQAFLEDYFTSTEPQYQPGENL
# Method: To avoid peptide adsorption to the plastic surface, protein low-binding tubes were used. ADP-Glo Kinase Assay (Promega) was then used to detect kinase activity accordingly with manufacturer’s instruction with minor modifications. In details, reactions were transferred to white 384 well-plates and stopped by adding 10 µL of ADP-Glo Reagent (Promega) for 50 min at rt. 20 μL of Detection Reagent (Promega) was then added for 30 min and the reaction read using GloMax Discover microplate reader (Promega). Data were plotted using GraphPad Prism 5.0. […] Compounds tested were assumed to act as fully ATP-competitive inhibitors. Therefore, Ki values were calculated accordingly to Equation (2).
# [1] = tested on: human MCF7 breast cancer cell line; assay: Cytotoxicity, growth inhibition MTS assay; assay type: cell-based; conditions: mean ± SD, triplicate; for IC50: Homo sapiens, MCF7, 72 h exposure, read-out: MCF-7 (IC50)
# Method: Cytotoxicity experiments were carried out using the human MCF7 breast cancer cell line (ATCC HTB-22). […] Compound potency was determined by a growth inhibition assay (CellTiter 96® Aqueous One Solution Cell Proliferation Assay MTS, Promega). 24 h after seeding in a 96-well plate, cells were exposed to the compounds (concentration range 1–100 µM) and 72 h later, 20 µL of 3–(4,5-dimethylthiazol-2-yl)-5–(3-carboxymethoxyphenyl)-2–(4-sulfophenyl)-2H-tetrazolium salt (MTS) was added to each well. […] Experiments were performed in triplicate.
# [2] = 100 µM compound, Table 2, read-out: % Inhibition 100 µM
# [3] = 10 µM compound, Table 3, tested as E/Z mixtures
# [4] = 100 µM compound, Table 3, tested as E/Z mixtures, read-out: % Inhibition 100 µM
# [5] = 100 μM compound, in-house collection screen, read-out: % Inhibition Src (100 μM)
# [6] = Table 3, calculated from ID50 assuming fully ATP-competitive inhibition
# [7] = 100 µM compound, Table 3, tested as E/Z mixtures, 100 µM
SMILES,melting point,inhibition at 10 µM (c-Src; [3]) [%],inhibition at 100 µM (c-Src; [4]) [%],inhibition at 100 µM (c-Src; [5]) [%],further results
"O=C1C(=Cc2cccc(Oc3ccccc3)c2)c2ccccc2N1O [Compound 22, 1-hydroxy-3–(3-phenoxybenzylidene)indolin-2-one]",,,,,"inhibition at 10 µM (c-Src; 10 µM compound, Table 2): 32.1 ± 3.53%; inhibition at 100 µM (c-Src; [2]): 64.6 ± 3.8%"
"O=C1Nc2cc(Cl)ccc2C1=Cc1cnc(Br)s1 [Compound 49, 3-((2-bromothiazol-5-yl)methylene)-6-chloroindolin-2-one]",262 to 263 °C (dec.),53.9 ± 26.6,76.8 ± 9.22,,"MCF-7 (IC50, μM) ([1]; 72 h exposure): potency comparable to Dasatinib; also recorded: cytotoxicity comparable to that of the reference compound Dasatinib; IC50 [1]: 33 ± 2 µM; IC50 (c-Src; Table 3, 100 μM ATP): > 10 µM"
CCCN1CC2=C(CC(C)(C)CC2=O)N(c2ccc(C(N)=O)cc2)C1 [Compound 20],,,,7.7,
"O=C1Nc2cc(Cl)ccc2C1=Cc1ccc([N+](=O)[O-])cc1 [Compound 33, 6-chloro-3–(4-nitrobenzylidene)indolin-2-one]",322 to 323 °C (dec.),53 ± 18.1,69.94 ± 0.19,,"IC50 [1]: > 100 µM; ID50 (c-Src; Table 3, 100 μM ATP): single-digit micromolar; IC50 (c-Src; Table 3, 100 μM ATP): 2.43 µM; Ki (c-Src; [6]): 1.64 µM; Ki (ATP competitive) (c-Src; [6]): single-digit micromolar"
"COc1cc2c(cc1OC)C(=Cc1ccc(-c3ccccc3)cc1)C(=O)N2 [Compound 30, 3-([1,1′-biphenyl]-4-ylmethylene)-5,6-dimethoxyindolin-2-one]",231 to 232 °C,,,,"inhibition at 10 µM (c-Src; 10 µM compound, Table 2): 9.39 ± 19.2%; inhibition at 100 µM (c-Src; [2]): 42 ± 8.91%"
O=C(Nc1ccccc1)Nc1ccc(/C=C2\C(=O)Nc3ccccc32)cc1 [Compound 9],,,,84,
O=C1Nc2cc(Cl)ccc2/C1=C/c1cc(Br)c(O)c(Br)c1 [Compound 26],,,,,"inhibition at 10 µM (c-Src; 10 µM compound, Table 2): 67%; % Inhibition 10 µM (c-Src; 10 µM compound, Table 2, listed as C00026, 10 µM): 67.03 ± 0.10%; % Inhibition 100 µM (c-Src; 100 µM compound, Table 2, listed as C00026, 100 µM): 94.70 ± 0.30%; inhibition at 100 µM (c-Src; [2]): 95%; IC50 (c-Src; Table 2, 100 μM ATP): 5.63 µM; Ki (c-Src; Table 2, calculated from ID50 assuming fully ATP-competitive inhibition): 3.8 µM"
"O=C1Nc2cc(Cl)ccc2C1=Cc1ccc(OCC2CC2)cc1 [Compound 45, 6-Chloro-3–(4-(cyclopropylmethoxy)benzylidene)indolin-2-one]",231 to 232 °C,14.4 ± 2.09,34.4 ± 13.3,,% Inhibition 100 µM (c-Src; [7]): almost inactive
"O=C1Nc2cc(Cl)ccc2C1=Cc1ccc(O)cc1 [Compound 35, 6-chloro-3–(4-hydroxybenzylidene)indolin-2-one]",330 to 331 °C (dec.),37.9 ± 0.35,86.9 ± 2.5,,"IC50 (c-Src; Table 3, 100 μM ATP): > 10 µM"
O=C1/C(=C/c2ccc(-c3ccccc3)cc2)CCN1O [Compound 24],,,,,"inhibition at 10 µM (c-Src; 10 µM compound, Table 2): 34.2 ± 0.6%; inhibition at 100 µM (c-Src; [2]): 87.5 ± 7.41%"
NC(=O)c1cc2cccc(-c3ccccc3)c2[nH]1 [Compound 3],,,,34.8,
NC(=O)n1ccc2ccc(-c3ccccc3F)nc21 [Compound 2],,,,28.6,
"O=C(O)COc1ccc(C=C2C(=O)Nc3cc(Cl)ccc32)cc1 [Compound 46, 2–(4-((6-Chloro-2-oxoindolin-3-ylidene)methyl)phenoxy)acetic acid]",197 °C (dec.),0,70,,"% Inhibition 100 µM (c-Src; 100 µM compound, Table 3, tested as E/Z mixtures, listed as C00041, 100 µM): 70.56 ± 4.80%"
O=C(Nc1ccccc1)Nc1ccc(/C=C2\C(=O)N(O)c3ccccc32)cc1 [Compound 8],,,,83.2,"IC50 (c-Src; Table 1, 100 μM ATP): 12.5 µM"
O=C1/C(=C\C=C\c2ccc(-c3ccccc3)cc2)c2ccccc2N1O [Compound 23],,,,,"inhibition at 10 µM (c-Src; 10 µM compound, Table 2): 22.8 ± 2.94%; inhibition at 100 µM (c-Src; [2]): 57.4 ± 6.31%"
"O=C1Nc2ccccc2C1=Cc1ccc(-c2ccccc2)s1 [Compound 27, 3-((5-phenylthiophen-2-yl)methylene)indolin-2-one]",257 to 258 °C,,,,"inhibition at 10 µM (c-Src; 10 µM compound, Table 2): 25.3 ± 9.71%; inhibition at 100 µM (c-Src; [2]): 45.6 ± 7.85%"
"N#Cc1ccc(C=C2C(=O)Nc3cc(Cl)ccc32)cc1 [Compound 32, 4-((6-chloro-2-oxoindolin-3-ylidene)methyl)benzonitrile]",310 °C (dec.),35.7 ± 9.66,89 ± 1.35,,"IC50 (c-Src; Table 3, 100 μM ATP): > 10 µM"
Cc1ccc(C2=CCNC(=O)C3C2c2ccccc2N3C)cc1 (stereo not shown) [Compound 16],,,,0.6,
CC(=O)c1cccc(-c2nc3n(n2)CC(c2ccccc2)=NN3)c1 [Compound 13],,,,90,"IC50 (c-Src; Table 1, 100 μM ATP): 50 µM"
COc1ccc(-c2nc3n(n2)CC(c2ccccc2)=NN3)cc1 [Compound 14],,,,,"% Inhibition Src (100 μM) (c-Src; 100 μM compound, in-house collection screen): did not affect the enzyme activity"

SMILES,melting point,inhibition at 10 µM (c-Src; [3]) [%],inhibition at 100 µM (c-Src; [4]) [%],inhibition at 100 µM (c-Src; [5]) [%],further results
"O=C1Nc2cc(Cl)ccc2C1=Cc1ccc(C(=O)O)cc1 [Compound 36, 4-((6-chloro-2-oxoindolin-3-ylidene)methyl)benzoic acid]",271 to 272 °C (dec.),4.15 ± 1.28,47.2 ± 9.33,,% Inhibition 100 µM (c-Src; [7]): very low activity
"O=C1Nc2cc(Cl)ccc2C1=Cc1cccc(Oc2ccccc2)c1 [Compound 38, 6-chloro-3–(3-phenoxybenzylidene)indolin-2-one]",188 to 189 °C,31.5 ± 3.16,53.6 ± 12.9,,
O=C1/C(=C\c2ccc(-c3ccccc3)cc2)c2ccccc2N1O [Compound 7],,,,77.3,
"Cc1nc(Nc2ncc(C(=O)Nc3c(C)cccc3Cl)s2)cc(N2CCN(CCO)CC2)n1 [Dasatinib, reference compound]",,,,,IC50 [1]: 27 ± 1 µM
"O=C1Nc2cc(Cl)ccc2C1=Cc1ccc(OCc2ccc(C(=O)O)cc2)cc1 [Compound 47, 4-((4-((6-chloro-2-oxoindolin-3-ylidene)methyl)phenoxy)methyl)benzoic acid]",,63.4 ± 1.06,94,,"% Inhibition 100 µM (c-Src; 100 µM compound, Table 3, tested as E/Z mixtures, listed as C00042, 100 µM): 93.88 ± 0.58%; IC50 (c-Src; Table 3, 100 μM ATP): 5.31 µM; Ki (c-Src; [6]): 3.58 µM"
NC(=O)Nc1ccn([C@H]2C[C@H](O)[C@@H](CO)O2)c(=O)n1 [Compound 5],,,,1.8,
NC(=O)c1noc2c1CCCC2O (stereo not shown) [Compound 19],,,,12.8,
NC(=O)Nc1ccn([C@@H]2O[C@H](CO)CC2(F)F)c(=O)n1 [Compound 6],,,,10.3,
"O=C1Nc2cc(Cl)ccc2C1=Cc1ccc(-c2ccccc2)s1 [Compound 48, 6-chloro-3-((5-phenylthiophen-2-yl)methylene)indolin-2-one]",233 to 234 °C,12.8 ± 1.32,87.7 ± 3.04,,
CN(C)c1nsc2c1C(=O)c1ccccc1C2=O [Compound 10],,,,,"% Inhibition Src (100 μM) (c-Src; 100 μM compound, in-house collection screen, 100 µM): 43%; % Inhibition Src (100 μM) (c-Src; 100 μM compound, in-house collection screen, listed as C00004, 100 µM): 43.5%"
"COc1cc2c(cc1OC)C(=Cc1cc(Br)c(O)c(Br)c1)C(=O)N2 [Compound 29, 3–(3,5-dibromo-4-hydroxybenzylidene)-5,6-dimethoxyindolin-2-one]",,,,,"inhibition at 10 µM (c-Src; 10 µM compound, Table 2): 39.8 ± 3.16%; inhibition at 100 µM (c-Src; [2]): 78.6 ± 1.32%"
"CCOC(=O)COc1ccc(C=C2C(=O)Nc3cc(Cl)ccc32)cc1 [Compound 43, Ethyl 2–(4-((6-chloro-2-oxoindolin-3-ylidene)methyl)phenoxy) acetate]",158 to 159 °C,71.7 ± 2.27,80.8 ± 6.47,,"IC50 [1]: 85 ± 2 µM; % Inhibition 100 µM (c-Src; [7]): good activity; IC50 (c-Src; Table 3, 100 μM ATP): 3.24 µM"
"COC(=O)c1ccc(COc2ccc(C=C3C(=O)Nc4cc(Cl)ccc43)cc2)cc1 [Compound 44, Methyl-4-((4-((6-chloro-2-oxoindolin-3-ylidene)methyl)phenoxy)methyl)benzoate]",201 to 202 °C,41 ± 10.3,92.1 ± 3.84,,% Inhibition 100 µM (c-Src; [7]): good activity
COc1cc2c(cc1OC)C(c1ccc(OC(C)=O)cc1)CC(=O)N2 (stereo not shown) [Compound 12],,,,40,
"O=C1Nc2cc(Cl)ccc2C1=Cc1ccc(OCc2ccccc2)cc1 [Compound 37, 3–(4-(benzyloxy)benzylidene)-6-chloroindolin-2-one]",239 to 240 °C (dec.),16.9 ± 13.9,84.27 ± 0.82,,
NC(=O)n1ccc2ccc(-c3ccc(F)cc3)nc21 [Compound 1],,,,~58,"% Inhibition Src (100 μM) (c-Src; 100 μM compound, in-house collection screen, listed as C00001, 100 µM): 58.1%"
Nc1nsc2c1C(=O)c1ccccc1C2=O [Compound 11],,,,2.2,
COc1cc(OC)c(/C=C2/C(=O)Nc3ccccc32)c(OC)c1 [Compound 25],,,,,"inhibition at 10 µM (c-Src; 10 µM compound, Table 2): 23.1 ± 5.55%; inhibition at 100 µM (c-Src; [2]): 35.8 ± 3.69%"
O=C1c2cc(=O)c3cc(O)ccc3n2C2CCCN12 (stereo not shown) [Compound 18],,,,15.5,
NC(=O)n1ccc2ccc(N3CCCC3)nc21 [Compound 4],,,,4,
